From article PMC6054517, “Design and synthesis of novel oridonin analogues as potent anticancer agents” (Journal of Enzyme Inhibition and Medicinal Chemistry, 2018)
Like-named read-outs stand apart in the source and are kept apart here.

Legend:
[1] = system: AGS, MGC803, Bel7402, HCT116, A549, and HeLa; assay: MTT assay, overall statement on six tumour cell lines; assay type: cell-based, human; conditions: six cancer cell lines
Text: (§1) Human gastric cancer (AGS), human differentiation of advanced gastric cancer (MGC803), human colorectal cancer (HCT116), human lung cancer (A549), human hepatocellular carcinoma (Bel7402) and human cervical cancer (HeLa) cell lines were obtained from the State Key Laboratory of Natural Resources and Functional Molecules of the Changbai Mountain (Yanbian University) and maintained in Dulbecco’s modified Eagle’s medium and RPMI Media 1640 (RPMI1640), supplemented with 10% foetal bovine serum 100 IU/ml penicillin, […] and 2 mmol/l L-glutamine (Sigma) at 37 °7 in a humidified atmosphere containing 5% CO2.
(§2) All six human cancer cell lines and normal L02 cells were seeded in 96-well plates at the appropriate densities to ensure exponential growth throughout the experimental period (9 × 10^3 cells per well) and then allowed to adhere for 24 h. The cells were then treated for 48 h with four serial dilutions (100, 50, 10, and 1 µM) of each compound. 5-Fluorouracil (5-FU) was used as the positive control. After incubation for 48 h, 10 µl MTT solution was added to each well to give a final concentration of 2 mg ml^−1. The plates were then incubated for further 4 h. After incubation, the MTT solution was removed and 150 µl DMSO was added to each well to solubilise the formed product. To ensure complete solubilisation, the plates were shaken vigorously for 10 min at room temperature. The optometric density (OD) was read on a microplate reader (ELx800, BioTek, Highland Park, Winooski, VT) at a wavelength of 492 nm and the data were subsequently analysed. The percentage of cell growth inhibition was calculated from the following equation: inhibitory rate (%) = [1–(ODtreated–ODblank)/(ODcontrol–ODblank)] × 100.
(§3) The MTT assay was performed using a standard protocol.

Hela = assay: MTT antiproliferative assay, HeLa cells; assay type: cell-based, human; conditions: for IC50: Homo sapiens, HeLa, MTT, 48 h, means ± SD, n = 3; for Selectivity index Hela: IC50 on normal cells (L02)/IC50 on tumour cells (Hela)
Text: as §1, §2, §3

A549 = assay: MTT antiproliferative assay, A549 cells; assay type: cell-based, human; conditions: for IC50: Homo sapiens, A549, MTT, 48 h, means ± SD, n = 3; for Selectivity index A549: IC50 on normal cells (L02)/IC50 on tumour cells (A549)
Text: as §1, §2, §3

MGC803 = assay: MTT antiproliferative assay, MGC803 cells; assay type: cell-based, human; conditions: for IC50: Homo sapiens, MGC-803, MTT, 48 h, means ± SD, n = 3; for Selectivity index MGC803: IC50 on normal cells (L02)/IC50 on tumour cells (MGC803)
Text: as §1, §2, §3

HCT116 cells [2] = assay: Cell cycle distribution by flow cytometry (PI); assay type: cell-based, human; conditions: HCT116, 5 μM, 48 h; control 19.35%
Method: HCT116 cells were plated in six-well plates (1.0 × 10^6 cells per well) and incubated at 37 °7 for 12 h. Exponentially growing cells were then incubated with compound 2p at different concentrations (0 , 5.0 µM) and oridonin at 5.0 µM. After 48 h, the cells were centrifuged at 1000 rpm for 10 min and then fixed in 70% ethanol at −20 °0 for at least 24 h. The cells were subsequently resuspended in phosphate-buffered saline (PBS) containing 50 µg ml^−1 RNase A and 50 µg ml^−1 PI. The cellular DNA content for the cell cycle distribution analysis was measured by flow cytometry using a FACSCalibur flow cytometer with Cell Quest software (Becton-Dickinson, Franklin Lakes, NJ), plotting at least 30,000 events per sample. The percentage of cells in the G1, S and G2 phases of the cell cycle were determined using the ModFit LT V4.0 software package (Verity Software, Topsham, ME).
Numerous cytotoxic compounds exert their antiproliferative effect by inducing cell cycle arrest (at a particular cell cycle checkpoint), apoptosis, or both[25]. These mechanisms are considered to be effective anticancer strategies. We used fluorescence-activated cell sorting analysis to explore the mechanism by which compound 2p reduced the viability of HCT116 cells. Compound 2p and oridonin were selected and tested against HCT116 cell lines at a concentration of 5 µM.

AGS = assay: MTT antiproliferative assay, AGS cells; assay type: cell-based, human; conditions: for IC50: Homo sapiens, AGS, 48 h, MTT, means ± SD, n = 3; for Selectivity index AGS: IC50 on normal cells (L02)/IC50 on tumour cells (AGS)
Text: as §1, §2, §3

HCT116 cells [3] = assay: Apoptosis by flow cytometry (annexin V-FITC/PI); assay type: cell-based, human; conditions: HCT116, 5 µM, 48 h; vehicle 6.20%
Method: Apoptosis was detected using an Apoptosis Detection Kit (Invitrogen, Eugene, OR). Briefly, cells were plated in six-well plates (1.0 × 10^6 cells per well) and incubated at 37 °C for 12 h. Exponentially growing cells were then incubated with compound 2p at different concentrations (0 , 5.0 µM) and oridonin at 5.0 µM. Following 48 h of incubation, the cells were collected and washed twice with PBS, once with 1 × binding buffer, and then stained with 5 µM annexin V-FITC and 2.5 µM PI in 1 × binding buffer for 30 min at room temperature in the dark. Apoptotic cells were quantified using a FACSCalibur flow cytometer with the Cell Quest software (Becton-Dickinson).
Because compound 2p arrested the cells in the G2 phase, we investigated whether it also causes apoptosis. HCT116 cells were treated with the vehicle, compound 2p (5 µM), or oridonin (5 µM) for 48 h, and then stained with annexin V-FITC and PI.

HCT116 [4] = assay: MTT antiproliferative assay, HCT116 cells; assay type: cell-based, human; conditions: for IC50: MTT, 48 h, means ± SD, n = 3; for Selectivity index HCT116: IC50 on normal cells (L02)/IC50 on tumour cells (HCT116)
Text: as §1, §2, §3

L02 = assay: MTT assay on normal cell line L02; assay type: cell-based; conditions: normal human liver cell line L02, MTT, 48 h
Method: as §2, with “5-Fluorouracil (5-FU) was used as the positive control.” left out
Lack of selective cytotoxicity is the main factor that restricts the dose of most conventional chemotherapeutic agents. […] Selectivity indexes between cancer cells and L-02 cells were calculated.

Bel7402 = assay: MTT antiproliferative assay, Bel7402 cells; assay type: cell-based, human; conditions: for IC50: Homo sapiens, Bel-7402, MTT, 48 h, means ± SD, n = 3
Text: as §1, §2, §3

HCT116 [5] = conditions: cited from earlier work

IC50 (Hela) [µM]	IC50 (A549) [µM]	IC50 (MGC803) [µM]	IC50 (AGS) [µM]	IC50 (HCT116 [4]; Homo sapiens, HCT-116, 48 h) [µM]	IC50 (HCT116 [4]) [µM]	IC50 (Bel7402) [µM]	Structure (SMILES)	antiproliferative activities against the six tumour cell lines (in words) [1]	Selectivity index Hela (Hela)	Selectivity index A549 (A549)	Selectivity index MGC803 (MGC803)	percentage of G2 cell population (HCT116 cells [2]) [%]	Selectivity index AGS (AGS)	percentage of total apoptotic cells (right quadrants, Q2 + Q3) (HCT116 cells [3]) [%]	Selectivity index HCT116 (HCT116 [4])	IC50 value in L02 cells relative to that in HCT116 cells (selectivity) (HCT116 [4]; L02 versus HCT116) [fold]	IC50 (L02) [µM]	IC50 (HCT116 [5]) [µM]	Selectivity index Bel7402 (Bel7402; IC50 on normal cells (L02)/IC50 on tumour cells (Bel7402))
6.33 ± 0.96	5.9 ± 0.52	4.54 ± 0.94	4.09 ± 0.65	1.08	1.05 ± 0.23	3.21 ± 0.58	CC(C)=CCOc1ccc(/C=C2/C(=O)[C@]34[C@H](O)[C@H]2CC[C@H]3C23CO[C@]4(O)[C@@H](O)[C@@H]2C(C)(C)CC[C@@H]3O)cc1 [Compound 2p, (1S,4aR,5S,6S,6aR,9S,11aS,14R,E)-1,5,6,14-tetrahydroxy-4,4-dimethyl-8-(4-((3-methylbut-2-en1yl)oxy)benzylidene)decahydro-1H-6,11b-(epoxymethano)-6a,9-methanocyclohepta[a]naphthalen-7(8H)-one]	more potent antiproliferative activities in vitro than oridonin	1.09	1.17	0.75	41.46	3.28	60.94	6.55	6.5	6.88 ± 1.12	–	–
–	–	–	–	–	–	–	CC(C)=CCOc1ccc(C(=O)/C=C/c2ccc(Cl)cc2)c(O)c1 [Compound 4]	–	–	–	–	–	–	–	–	–	–	0.89	–
15 ± 2.01	24.7 ± 2.11	9.18 ± 1.01	8.35 ± 0.41	6.84 ± 0.98	–	9.59 ± 1.19	C=C1C(=O)[C@]23[C@H](O)[C@H]1CC[C@H]2[C@@]12CO[C@]3(O)[C@@H](O)[C@@H]1C(C)(C)CC[C@@H]2O [Oridonin]	–	0.46	0.28	0.76	37.80	0.83	24.84	1.02	–	6.97 ± 0.98	–	0.73
